Data on 1 compound can be found in US20230165836A1, “ALPHA-2 ADRENERGIC RECEPTOR AGONISTS FOR THE TREATMENT OF CANCER” (UNIVERSITÉ CATHOLIQUE DE LOUVAIN, priority 2020, published 2023).

“Also recorded” adds a separate entry of the source.

In assay [1] the test system is B16F1 melanoma. In words: B16F1 melanoma in immune competent mice. The class given is in vivo. Particulars: B16F1 in immune competent C57BL/6 mice; 5 mg/kg, i.p.; monotherapy. The procedure:
(§1) FIGS. 10A-B is a set of curves showing the tumor growth of B16F1 melanoma in C57BL/6J (FIG. 10A) or immunodeficient NSG mice (FIG. 10B) treated with PBS (Control, curve 1) or clonidine (5 mg/kg, i.p., curve 2).
(§2) FIGS. 11A-B is a set of curves showing the tumor growth of B16F1 melanoma in C57BL/6J (FIG. 11A) or NSG mice (FIG. 11B) treated with PBS (Control, curve 1) or guanfacine (5 mg/kg, i.p., curve 2).

For assay [2], the system named is JAK2V617F mutated bone marrow. The experiment in a line: Myelofibrosis by JAK2V617F bone marrow transplantation, platelet counts. The class given is in vivo, mice. Particulars: 5 mg/kg daily for three weeks. The procedure:
Murine femurs and tibias from JAK2V617F mutant mice were first harvested and cleaned thoroughly. Marrow cells were flushed into PBS with 2% fetal bovine serum using a 25G needle and syringe. Resulting cell suspensions were then filtered through a 40 uM cell strainer. Recipient mice were irradiated with two doses of 500 rad 4 h apart. 1 million of donor cells were injected into wild-type recipients by standard intravenous injection using a 27G insulin syringe. One week after bone marrow transplantation, mice were treated with guanabenz or clonidine at a dose of 5 mg/kg daily for three weeks. After three weeks of treatment, mice were dissected and peripheral blood was drawn by cardiac puncture, the platelet concentration was measured by Cell Counter Analyzer MS9-5V.

For another assay, the system named is MC38 colon carcinomas. The experiment in a line: MC38 colon carcinoma in wildtype mice. Particulars: 5 mg/kg, i.p. daily from tumor size around 50 mm^3. It counts as in vivo, C57BL/6 Wildtype mice. The method, then:
C57BL/6 Wildtype or C57BL/6 Adra2a KO mice bearing MC38 colon carcinomas received daily injections of vehicle control (PBS), clonidine (5 mg/kg, i.p.) or guanabenz (5 mg/kg, i.p.), when the tumor size was around 50 mm^3, until the day of sacrifice.

Assay [3] concerns immune-resistant autochthonous melanoma tumors (TiRP). In words: TiRP melanoma with adoptive cell transfer (ACT) of P1A-specific CD8+T cells. It counts as in vivo, TiRP mice. Particulars: 5 mg/kg. The text has this: TiRP mice have been created by crossing Ink4a/Are^flox/flox mice with mice carrying a transgenic construct controlled by the tyrosinase promoter and driving the expression of H-Ras ^12V and Trapl a which encodes a MAGE-type tumor antigen P1A; the promoter is separated from the coding region by a stop cassette made of a floxed self-deleting CreER (Huijbers et al., 2006, Cancer Res 66, 3278-3286). Those mice were backcrossed to a B10.D2 background and bred to homozygosity. TCRP1A mice heterozygous for the H-2Ld/P1A35-43-specific TCR transgene were kept on the B10.D2;Rag1^−/− background (Shanker et al., 2004, J Immunol 172, 5069-5077). BALB/c mice were used in tumor transplantation experiments. TiRP-derived T429.11 transplanted melanoma model: T429.11 clone was derived from an induced Amela TiRP tumor referred to as T429. It was cloned from the T429 induced melanoma primary tumor line. Two million of T429.11 tumor cells were injected subcutaneously into recipient mice for tumor establishment (Zhu et al., 2017, Nat Commun. 10; 8(1):1404). Adra2a tm1Bkk mice (Strain Name: B6.129-Adra2a tm1Bkk /J, # 004367) were obtained from Jackson Laboratory (Bar Harbor, Me., USA).
A fresh solution of 40H-Tamoxifen was prepared by dissolving 40H-Tamoxifen (Imaginechem®) in 100% ethanol and mineral oil (ratio 1:9) followed by 30 min sonication, and injected subcutaneously (2 mg/200 uL per mouse) in the neck area of gender-matched 7 weeks old TiRP mice. Tumor appearance was monitored daily and tumors were measured three times/week. Tumor volume (in mm^3) was calculated by the following formula: Volume=width^2×length/2.
For the adoptive cell transfer (ACT), P1A-specific (TCRP1A) CD8+T cells were isolated from spleens and lymph nodes of TCRP1A mice as described hereinabove, and stimulated in vitro by co-culture with irradiated (10,000 rads) L1210.P1A.B7-1 cells (Gajewski et al., 1995, J Immunol 154, 5637-5648) at 1:2 ratio (0.5×10^5 CD8+T cells and 10^5 L1210.P1A.B7-1 cells per well in 48-well plates) in IMDM (GIBCO®) containing 10% fetal bovine serum supplemented with L-arginine (0.55 mM, Merck®), L-asparagine (0.24 mM, Merck®), glutamine (1.5 mM, Merck®), beta-mercaptoethanol (50 μM, Sigma Aldrich®), 50 U mL^−1 penicillin and […] mL^−1 streptomycin (Life Technologies®). Four days later, TCRP1A CD8+T cells were purified on a Lymphoprep gradient (StemCell®) and 10^7 living cells were injected intravenously in 200 μL PBS in TiRP-tumor bearing mice on the day of randomization.
TiRP-tumor bearing mice received adoptive cell transfer (ACT) of 10^7 P1A-specific activated CD8+T cells and daily injections of vehicle control, clonidine (5 mg/kg, i.p.), or clonidine (5 mg/kg, i.p.) combined with phentolamine (5 mg/kg, i.p.), when the tumor size was around 500 mm^3, until the day of sacrifice. Tumor size was monitored every 2 days. Mice were sacrificed when the tumor in control group reached around 2,000 mm^3.
TiRP-tumor bearing mice received adoptive cell transfer (ACT) of 10^7 of P1A-specific activated CD8+T cells. Daily injections of 5 mg/kg i.p. of romifidine or clonidine were thus administered from the day of the ACT, when the tumor size was around 500 mm^3, until the day of sacrifice. As shown on FIGS. 5A-B, following romifidine or clonidine administration, tumor infiltration of CD8+T cells was increased. […]

The next assay relates to myeloma. The experiment in a line: Tumor model: myeloma. It counts as in vivo, mice. Particulars: myeloma (FIG. 22E, 23E). An excerpt:
(§3) FIGS. 23A-H is a set of curves showing the tumor growth of mice treated with PBS (Control, circles) or guanabenz (GBZ, triangles) in different tumor models: such as mammary gland tumor (FIG. 23A), hepatocellular carcinoma (FIG. 23B), T cell lymphoma (FIG. 23C), lung cancer (FIG. 23D), myeloma (FIG. 23E), mammary adenocarcinoma (FIG. 23F), renal cancer (FIG. 23G) and fibrosarcoma (FIG. 23H).

For the next assay, the system named is hepatocellular carcinoma. The experiment in a line: Tumor model: hepatocellular carcinoma. It counts as in vivo, mice. Particulars: hepatocellular carcinoma (FIG. 22B, 23B).
From the text: as §3

The subject of assay [4] is B16F1 melanoma. The experiment in a line: B16F1 melanoma in immune deficient mice. It counts as in vivo. Particulars: B16F1 in immune deficient NSG mice; 5 mg/kg, i.p. The procedure: as §1, §2

`Clc1cccc(Cl)c1N=C1NCCN1` [clonidine]: the tumor growth entry is “inhibited tumor growth” with B16F1 melanoma [1]; “significant tumor inhibition” in the assay on MC38 colon carcinomas; “strong tumor inhibition” in the assay on myeloma; “strong tumor inhibition” in the assay on hepatocellular carcinoma; “No tumor inhibition was found” in the assay with B16F1 melanoma [4]. The “platelet (PLT) counts” value in assay [2] is recorded as “significantly reduces the platelet (PLT) counts; also recorded: significantly reduced the high platelet counts”. In assay [3] (TiRP mice with ACT, 5 mg/kg i.p. daily from day of ACT, tumor size around 500 mm^3), the “tumor infiltration of CD8+T cells (%CD8+T cells among total CD45+T cells)” value was “increase of tumor infiltration of CD8+T cells; also recorded: increased”. Besides, in assay [3] (TiRP mice, ACT of 10^7 P1A-specific CD8+T cells, 5 mg/kg i.p. daily), the “tumor growth, combined with ACT” value is listed as “strongly sensitized immune-resistant autochthonous melanoma tumors (TiRP) to adoptive cell transfer (ACT); also recorded: efficiently control the growth; also recorded: inhibited the tumor growth”.
